The target in assay [1] is T1, Athe_2574 (Anaerocellum bescii, UniProt A0ABY1S640). The experiment in a line: biochemical. The format is binding. Particulars: result in words. Here is the method: (§1) Proteins were dialyzed into the following buffer: 50 mM HEPES, 300 mM NaCl, pH 7.0 via 10 kDa MWCO PES filter 20 mL Spin-X Concentrators (Corning). Measurements were performed at 25 °C using a MicroCal PEAQ Isothermal Titration Calorimeter (Malvern Panalytical). A standard titration experiment consisted of the protein sample at 50 µM and the sugar ligand at 500 µM. The stirring was set at 750 rpm. The 280 µL sample of protein was injected with a priming aliquot of 0.2 µL of sugar ligand, followed by 19 successive injections of 2.0 µL at 120 seconds intervals. Integrated heat effects were determined by non-linear regression using a single-site binding model (Microcal PEAQ-ITC Analysis). The fitted isotherms yield the binding dissociation constant and other thermodynamic parameters calculated using the differential form of the Gibbs Free Energy equation ΔGd=-RTln(Kd) . The slope of the binding isotherm at the equivalence point was used to determine the dissociation constant Kd . The association rate constant Ka is defined as Ka=1/Kd .
T1 sequence (A0ABY1S640 entry or part of it): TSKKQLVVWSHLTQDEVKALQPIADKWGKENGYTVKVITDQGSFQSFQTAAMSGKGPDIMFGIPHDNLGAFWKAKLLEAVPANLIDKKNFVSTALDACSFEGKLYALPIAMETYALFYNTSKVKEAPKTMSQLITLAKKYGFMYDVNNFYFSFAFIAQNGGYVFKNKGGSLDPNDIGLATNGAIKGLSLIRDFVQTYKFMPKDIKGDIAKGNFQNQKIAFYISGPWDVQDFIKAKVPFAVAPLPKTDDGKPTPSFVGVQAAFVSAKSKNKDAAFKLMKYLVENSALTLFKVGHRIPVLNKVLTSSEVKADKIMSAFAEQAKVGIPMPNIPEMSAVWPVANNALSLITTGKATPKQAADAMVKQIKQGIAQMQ

The subject of assay [2] is Athe_2310_Mut1 (D69F G279F G278F). The experiment in a line: DSC screen of mutant Athe_2310_Mut1 with maltodextrins. The note with it: Fig. S5, result in words. The format is binding, Anaerocellum bescii. An excerpt:
We constructed mutant variants Athe_2310_Mut1 (D69F G279F G278F) and Athe_2574_Mut1 (G253F V254F P61W N63F D64F M322A W332A) that each contain point substitutions on residues predicted to be critical for both hydrophobic and hydrophilic contacts. In other words, the mutation of these residues is predicted to confer energetic penalties sufficiently large to prevent substrate binding. […] Similarly, Athe_2574_Mut1, with seven-point mutations due to its greater number of subsites, can no longer recognize maltodextrin substrates of any length (Fig. S6).
DSC measurements using a MicroCal PEAQ-DSC (Malvern Panalytical) were performed on Athe_2310 and Athe_2574 in combination with a variety of ɑ-glucans: trehalose (G2), maltose (G2), maltotriose (G3), maltotetraose (G4), maltopentaose (G5), and maltoheptaose (G7). The scan rate was set to […], with a max temperature of 130 °C. Protein was mixed with each sugar, yielding final concentrations of 2.5 mg/mL of protein and 5 mM of sugar. A total of 50 mM HEPES, 300 mM NaCl, pH 7.0, was used as the reference buffer. The heat capacity Cp was plotted against temperature and then normalized by the respective run’s maximum Cp value ( Cp,max ). We defined the melting temperature Tm as the temperature corresponding to Cp,max=Cp(T=Tm) . […]

Assay [3] deals with T1, Athe_2574. Put plainly: DSC thermal shift of Athe_2574 with ɑ-glucan substrates. The assay is classed as binding. The note with it: Athe_2574 + sugar; 2.5 mg/mL protein, 5 mM sugar; 50 mM HEPES, 300 mM NaCl pH 7.0. The source says: (§2) In DSC, proteins are heated at a constant rate to induce thermal denaturation. This can be measured by an increase in the protein’s specific heat capacity Cp(T) as a function of temperature. The melting temperature Tm is defined as the temperature at which the protein attains its maximum heat capacity and becomes fully denatured ([46]). However, the presence of their cognate ligands can induce substrate-binding proteins to adopt a more thermally stable closed conformation, resulting in an increase in Tm ([47]). This ΔTm = |Tm,holo − Tm,apo| difference can be used to determine differential substrate specificity, as preferred ligands that are more tightly bound will yield larger ΔTm values. […] However, other short ɑ-glucans trehalose (ΔTm = 7.23 °C) and maltotriose (ΔTm = 6.63 °C) also yield substantial melting temperature differences. Melting temperature differences are subtler with longer oligosaccharides maltotetraose (ΔTm = 1.57 °C), maltopentaose (ΔTm = 0.95 °C), and maltoheptaose (ΔTm = 0.26 °C) (Fig. 4a). However, as binding of maltose to E. coli MBP is known to increase protein melting temperature by approximately 8 °C, depending on pH, it is unlikely binding is taking place between Athe_2310 and longer maltodextrins (G4–G7) due to their much smaller ΔTm values in comparison ([47], [48]).
(§3) DSC measurements using a MicroCal PEAQ-DSC (Malvern Panalytical) were performed on Athe_2310 and Athe_2574 in combination with a variety of ɑ-glucans: trehalose (G2), maltose (G2), maltotriose (G3), maltotetraose (G4), maltopentaose (G5), and maltoheptaose (G7). The scan rate was set to […], with a max temperature of 130 °C. Protein was mixed with each sugar, yielding final concentrations of 2.5 mg/mL of protein and 5 mM of sugar. A total of 50 mM HEPES, 300 mM NaCl, pH 7.0, was used as the reference buffer. The heat capacity Cp was plotted against temperature and then normalized by the respective run’s maximum Cp value ( Cp,max ). We defined the melting temperature Tm as the temperature corresponding to Cp,max=Cp(T=Tm) . The melting temperature difference ΔTm=|Tm,holo-Tm,apo| is defined as the absolute difference in melting temperature between the melting temperature of a protein-sugar mix and the same protein with no sugar present.
A general note: Differential scanning calorimetry records heat flow against a reference as temperature is scanned.

Assay [4] addresses T2, Athe_2310 (Anaerocellum bescii, UniProt A0ABY1S743). The experiment in a line: DSC thermal shift of Athe_2310 with ɑ-glucan substrates. The format is binding. Particulars: Athe_2310 + sugar; 2.5 mg/mL protein, 5 mM sugar; 50 mM HEPES, 300 mM NaCl pH 7.0.
Excerpt: as §2, §3

A further assay concerns E. coli MBP. Set-up: method as in PMID 9007986, doi:10.1007/s00723-020-01232-y. The note with it: depending on pH; cited from earlier work.
The target of assay [5] is T2, Athe_2310. The experiment in a line: ITC of Athe_2310 with ɑ-glucan substrates. The assay is classed as binding. Here is the method:
as §1, with “Measurements were performed at 25 °C using a MicroCal PEAQ Isothermal Titration Calorimeter (Malvern Panalytical).” left out, “.” for “. The association rate constant Ka is defined as Ka=1/Kd .”

“And” between values parts separate entries of the source, which are not always exact repeats. Identical values can stand only once.

T2 sequence (A0ABY1S743 entry or part of it): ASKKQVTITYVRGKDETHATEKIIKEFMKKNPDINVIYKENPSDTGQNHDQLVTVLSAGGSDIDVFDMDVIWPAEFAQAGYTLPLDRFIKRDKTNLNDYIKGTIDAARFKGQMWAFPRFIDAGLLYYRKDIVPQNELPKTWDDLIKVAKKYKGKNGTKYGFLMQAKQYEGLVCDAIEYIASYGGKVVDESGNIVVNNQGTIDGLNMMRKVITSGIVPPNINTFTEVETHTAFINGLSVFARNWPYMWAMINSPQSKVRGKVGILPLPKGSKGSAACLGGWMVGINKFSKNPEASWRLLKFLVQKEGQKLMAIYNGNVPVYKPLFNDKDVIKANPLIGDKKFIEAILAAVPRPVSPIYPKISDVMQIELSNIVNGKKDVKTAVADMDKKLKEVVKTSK

Take `OC[C@H]1O[C@H](O[C@H]2[C@H](O)[C@@H](O)[C@H](O)O[C@@H]2CO)[C@H](O)[C@@H](O)[C@@H]1O` [Maltose, D-Maltose Monohydrate]: on Athe_2574 [1], the “ITC enthalpy changes of binding / fit of Kd and n” value is reported as “too small to fit meaningful”. Further, the “binding to Athe_2310_Mut1” value in assay [2] is listed as “can no longer bind”. Moreover, the Tm at Athe_2574 [3] was 97.8 °C. Further, the midpoint of thermal melting (Tm) at Athe_2310 [4] was 110.9 °C and 110.85 °C. Also, in the assay on E. coli MBP, the “increase of protein melting temperature on binding” value is “approximately 8 °C”. The dissociation constant Kd on Athe_2310 [5] worked out at 3.93 ± 0.78 µM. On Athe_2310 [5] (Athe_2310, ITC 25 °C), this compound yielded a TΔS of -3.85 kcal/mol, a ΔG of -7.38 kcal/mol and a ΔH of -3.53 ± 0.18 kcal/mol. At Athe_2310 [5] (Athe_2310, ITC 25 °C, Ka=1/Kd), this compound had a Ka of 254000 M⁻¹. Moreover, the “n (stoichiometry)” value on Athe_2310 [5] (Athe_2310, ITC 25 °C, single-site binding model) was found to be 0.76 ± 0.02.

What is called Tm is the temperature at the midpoint of the melting transition. As a reminder, the Kd is the concentration at which binding is half-saturated. Read a high Kd as a looser complex.

The values above are taken from article PMC12096829, “Maltodextrin transport in the extremely thermophilic, lignocellulose degrading bacterium Anaerocellum bescii (f. Caldicellulosiruptor bescii)” (Journal of Bacteriology, 2025).
